Calls of active or inactive are those of the source.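 The calls were made as follows: active = compounds giving half or more protection of infected cells from virus-caused growth loss, again on retest; inactive = the rest.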 *1 amine or outer side, *2 acyl side, *3 side chain or, on linkers, in order; H or OH if unused. Where a SMILES comes first, the peptide text is derived from it. [ ]: non-standard residue; d: D form. The star is where a group is joined. ξ: configuration not given here. X15 = O=C([C@H]1CCC[C@H]1N[*:1])[*:2]; ξW = NC(Cc1c[nH]c2ccccc12)C(=O)O; AllylGly = C=CC[CH](N)C(=O)O; ξF = NC(Cc1ccccc1)C(=O)O; Cbz = O=C(OCc1ccccc1)*; Boc = CC(C)(C)OC(=O)*; ξK = NCCCCC(N)C(=O)O; ξT = CC(O)C(N)C(=O)O; OtBu = CC(C)(C)O*; tBu = CC(C)(C)*
System: CEM cells HIV-1 protection, formazan growth assay
Assay: NCI AIDS Antiviral Assay
Conditions: for IC50: measured here: growth of uninfected CEM cells
Outline: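 CEM (human) cells, HIV-1 infected vs uninfected, 5-point dosing, formazan growth read-out. Retest threshold 50% protection.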

Compound | EC50 | IC50 | outcome
CCOC(=O)/C=C\c1c(Cl)n(-c2ccccc2)c(=O)n(-c2ccccc2)c1=O | > 200 µM | 31.6 µM | 
COC(=O)C(/C(=N\O)C(=O)Nc1cccc(Cl)c1C)c1cnc2ccccc2n1 (stereo unspecified) | > 17.4 µM | > 17.4 µM | 
O=C1C(=C2C(=O)c3ccccc3[N+]2=O)N([O-])c2ccccc21 |  |  | inactive
C/C(=N\NC(=S)N1CCCCCC1)c1ccccn1 | > 49 µM | 0.0372 µM | 
CCC/C=C/C=C\C(=O)O[C@@H]1[C@@H](C)[C@]2(O)[C@@H]3C=C(C)C(=O)[C@H]3CC(COC(C)=O)=C[C@H]2[C@@H]2C(C)(C)[C@]12OC(C)=O |  |  | inactive
Oc1ccc(-c2cc(-c3cc(-c4ccc(O)cc4)no3)on2)cc1 | > 200 µM | 6.31 µM | 
S=C1CC(c2ccc(Cl)cc2)Sc2ccccc2N1 (stereo unspecified) | > 200 µM | 138 µM | 
Cc1ccc(S(=O)(=O)N2CCCSCCSCCCSCC2)cc1 | > 17.8 µM | > 17.8 µM | 
CCN(CC)C(=S)Nc1ccc(-c2cc3ccc(O)cc3oc2=O)cc1 | > 200 µM | 14.1 µM | 
Cc1cc(-c2ccc(C(=O)O)[nH]2)on1 | > 200 µM | 69.2 µM | 
CC(=O)OCC1OC(SC2=N/C(=C\c3ccc(Br)s3)C(=O)N2CN2CCOCC2)C(OC(C)=O)C(OC(C)=O)C1OC(C)=O (stereo unspecified) | > 200 µM | 9.33 µM | 
CC1CC2=C(C(=O)O1)C(c1ccccc1)Nc1ccccc1N2 (stereo unspecified) | > 427 µM | 81.3 µM | 
SC1N=C(c2ccco2)N2C(S)N=C(c3ccccc3)N12 (stereo unspecified) | > 200 µM | 182 µM | 
CCOc1ccccc1NC(=O)CC(C(=O)OC)C(=O)C(=O)OC (stereo unspecified) | > 537 µM | > 537 µM | 
Cn1c2ccccc2c(=O)c2c(O)cc3c(c21)CC(C1(C)CO1)O3 (stereo unspecified) | > 6.17 µM | 0.209 µM | 
Cc1cnoc1NC1=CC(=O)C(=O)c2ccccc21 | > 200 µM | 26.3 µM | 
O=C1C=C(Nc2ccc(S(=O)(=O)Nc3nccs3)cc2)c2ccccc2C1=O | > 316 µM | 38.9 µM | 
Cc1nc(Nc2nc3ccccc3[nH]2)nc(Cl)c1CCCl |  |  | inactive
Cn1cc(NC(=O)c2cc(NC(=O)Nc3cc(C(=O)Nc4cc(C(=O)Nc5ccc6cc(S(=O)(=O)O)cc(S(=O)(=O)O)c6c5)n(C)c4)n(C)n3)nn2C)cc1C(=O)Nc1ccc2cc(S(=O)(=O)O)cc(S(=O)(=O)O)c2c1 | 6.17 µM | > 100 µM | 
COc1cc2c(cc1C1=NC(C)(C)CO1)OCO2 | > 1000 µM | > 1000 µM | 
S=C(N1CCN(c2ccccc2)CC1)N1CCN(c2ccccc2)CC1 | > 200 µM | > 200 µM | 

Compound | EC50 | IC50 | outcome
COc1cc(/C=C/c2sc3ccccc3[n+]2C)ccc1N(C)C | > 200 µM | 3.24 µM | 
COC(=O)[C@@]1(O)CC(C)C=C1C=O (stereo partly specified) | > 1350 µM | 28.8 µM | 
Clc1cc(Cl)c2c(c1)[nH]c1nc3ccccc3nc12 | > 18.2 µM | > 18.2 µM | 
NC1=NS(=O)(=O)N=C(N)C1=NNc1ccc([N+](=O)[O-])cc1 | > 794 µM | 126 µM | 
O=Cc1c2c(cc3c1CC1(C3)Cc3cc4c(c(C=O)c3C1)CCCC4)CCCC2 | > 200 µM | 123 µM | 
Clc1cccc(Cl)c1C1SCc2nc3cc4ccccc4cc3n21 (stereo unspecified) | > 200 µM | > 200 µM | 
CCOC(=O)C(CC(C)C)NC(=O)C(Cc1ccc(N(CCCl)CCCl)cc1)NC(C)=O (stereo unspecified) | > 10.7 µM | 0.132 µM | 
CC(=O)OC1CCC(OC(C)=O)[C@H]2[C@@H]1[C@@H]1S[C@H]2c2ccccc21 (stereo partly specified) | > 200 µM | 42.7 µM | 
C=CCC(NC(=O)C(CC(=O)OC(C)(C)C)NC(=O)OC(C)(C)C)C(=O)OC (stereo unspecified) (Boc-Asp(OtBu)-[AllylGly]-OMe; configuration not given here) | > 200 µM | 97.7 µM | 
N#C[C@H](c1nc2ccccc2[nH]1)c1nc2ccccc2nc1Cl | > 200 µM | 11 µM | 
O=C(O)CN(CC(=O)O)CC(O)CN(CC(=O)O)CC(=O)O | > 200 µM | 69.2 µM | 
CCc1cccc(C(C)(C)C)c1NC(=S)N/C=C(/C#N)C(N)=O | > 200 µM | 151 µM | 
CCC1(c2ccccc2)Oc2ccccc2-n2cccc2C1=O (stereo unspecified) | 1.78 µM | 5.01 µM | 
Cc1c(N=Nc2ccc([N+](=O)[O-])cc2)nc2scc(-c3ccccc3)n12 | > 14.5 µM | > 14.5 µM | 
CN(C)c1ccc(S(=O)c2ccc(N(C)C)cc2)cc1 | > 34.7 µM | > 34.7 µM | 
CC(C)=CCC[C@@H](C)[C@H]1CC[C@@]2(C)[C@@H]3CC[C@H]4C(C)(C)[C@@H](O)CC[C@@]45C[C@@]35CC[C@]12C | > 200 µM | 126 µM | 
COC(=O)C(Cc1cc(OC)c(OC)c(OC)c1)C(=O)OC | > 302 µM | > 302 µM | 
Cn1c([C@H](C#N)C(=O)c2cc(O)ccc2[N+](=O)[O-])nc2ccccc21 | > 200 µM | > 200 µM | 
COc1ccc([C@@]2(O)c3c(ccc(O)c3OC)[C@H]2OC)c(OC)c1 | > 15.8 µM | 9.33 µM | 
CC(OC(C)(C)C)C1NC(=O)C(CCCCNC(=O)OC(C)(C)C)NC(=O)C(Cc2c[nH]c3ccccc23)NC(=O)C(Cc2ccccc2)NC(=O)[C@H]2CCC[C@H]2NC(=O)C(Cc2ccccc2)NC1=O (stereo partly specified) (cyclo([X15][ξF][ξW][ξK](Boc)[ξT](tBu)[ξF])) |  |  | inactive
O=S1OC[C@H](CCCl)O1 (stereo partly specified) | > 200 µM | > 200 µM | 

Compound | EC50 | IC50 | outcome
CC(C)C(N=C1CC2CCC1(C(=O)Nc1ccccc1O)C2(C)C)c1ccccc1 (stereo unspecified) | 20 µM | 32.4 µM | 
O=C1CC2C(=O)N(Cc3ccccc3)C1C=C2S(=O)(=O)c1ccccc1 (stereo unspecified) |  |  | inactive
COc1ccccc1NCc1nnc(CCCCCCCCc2nnc(CNc3ccccc3OC)o2)o1 | > 200 µM | > 200 µM | 
Cc1cc(=O)n2[nH]nnc2n1 | > 200 µM | > 200 µM | 
C[N+]1([O-])CCOCC1 | > 200 µM | > 200 µM | 
O=C(NC1CCC(CC2CCC(NC(=O)c3cc(O)c(O)c(O)c3)CC2)CC1)c1cc(O)c(O)c(O)c1 (stereo unspecified) | > 100 µM | 10.5 µM | 
O=Nc1c(-c2ccccc2)nc2ccccn12 | > 200 µM | 38.9 µM | 
CC12CCC3C(CCC4=CC(=O)C=CC43C)C1CC(O)C(=O)O2 (stereo unspecified) | > 200 µM | > 200 µM | 
S=C1NC(c2ccc(Cl)cc2)N2C(=S)NC(c3ccc(Cl)cc3)N12 (stereo unspecified) |  |  | inactive
CCOC(=O)C1=C(C)NC2=C(C(=O)N(c3ccccc3)C2c2ccccc2)C1c1ccccc1 (stereo unspecified) | > 41.7 µM | > 41.7 µM | 
C/C(=N/NC(=S)Nc1cccc(Cl)c1)c1ccccn1 | > 0.2 µM | 0.0851 µM | 
Cc1ccc(-n2nc(C(OC3OC(CO)C(O)C(O)C3O)C(O)CO)c3nc4cc(C)c(C)cc4nc32)cc1 (stereo unspecified) |  |  | inactive
CCCCCCCCCCCC(=O)OCCOCCOCCOCCOCCOCc1ccc(OC)cc1 |  |  | inactive
NC(N)=NS(=O)(=O)c1ccc(NC(=O)c2cccc3c(Nc4ccc(S(=O)(=O)N=C(N)N)cc4)c4ccccc4nc23)cc1 | > 29.5 µM | 22.4 µM | 
O=S(=O)(F)c1ccc(C[P+](c2ccccc2)(c2ccccc2)c2ccccc2)c(Cl)c1 | > 200 µM | 45.7 µM | 
CCN(CC)CCNc1ccc([N+](=O)[O-])c2nc3ccc(OC)cc3c(NCCN(CC)CC)c12 | > 100 µM | 0.178 µM | 
COc1ccccc1N=Nc1c(S(=O)(=O)O)cc2cc(NC(=O)Nc3ccc4c(O)c(N=Nc5ccc(S(=O)(=O)O)cc5C)c(S(=O)(=O)O)cc4c3)ccc2c1O |  |  | active
O=c1c(Nc2ccccc2)cn(CCOc2ccc(Cl)cc2)c(=O)n1CCOc1ccc(Cl)cc1 | > 200 µM | 145 µM | 
c1ccc(C2=NOC(c3ccccc3)N2C23CC4CC(CC(C4)C2)C3)cc1 (stereo unspecified) | > 200 µM | > 200 µM | 
COc1cc2c3c([nH]c2c(OC)c1OC)CCN(Cc1ccccc1)C3 | > 200 µM | 66.1 µM | 
O=C(O)C1(C(=O)O)CC2C3C=CC(C3)C2C1 (stereo unspecified) | > 398 µM | > 398 µM | 

Compound | EC50 | IC50 | outcome
C=C(C)C1CC2C(C)=C(OC(C)=O)C1n1c(=O)c3cc4ccccc4cc3c(=O)n12 (stereo unspecified) | > 46.8 µM | > 46.8 µM | 
Cc1cn(C2CC(NC(=O)N(C)O)C(CO)O2)c(=O)[nH]c1=O (stereo unspecified) | > 200 µM | > 200 µM | 
CCCCC(C)/C=C/C(=O)C1=C(O)/C(=C/C(=O)O)OC1=O (stereo unspecified) | 302 µM | 851 µM | 
O=C(Nc1ccccc1)OCCN=C1c2ccccc2CCc2ccccc21 | > 200 µM | 18.6 µM | 
N=c1ncn(Cc2ccccc2)c2nc[nH]c12 | > 200 µM | > 200 µM | 
O=C1C(Cl)N(c2ccc(Cl)cc2Cl)C1c1c[nH]c2ccccc12 (stereo unspecified) | > 70.8 µM | > 70.8 µM | 
CC1=NN2C(c3ccc([N+](=O)[O-])cc3)=CSC2=NC(C)(C)C1 | > 158 µM | > 158 µM | 
CCOC(=O)CCC(NC(=O)OCc1ccccc1)C(=O)NC(CCC(=O)OCC)C(=O)NC(CCC(=O)OCC)C(=O)NC(CCC(=O)OCC)C(=O)NC(CCC(=O)OCC)C(=O)OCC (stereo unspecified) | > 100 µM | > 100 µM | 
CNC(=O)c1ncn(C2OC(CO)C(O)C2O)n1 (stereo unspecified) | > 200 µM | > 200 µM | 
CCN(CC)C(=S)SC1C(=O)NC(=O)NC1=O | > 200 µM | > 200 µM | 
CCOC(=O)C1C2CCC(C2)C1(CCl)C(=O)OCC (stereo unspecified) | > 251 µM | > 251 µM | 
CCC1CCc2c(OC)ccc(OCC(=O)O)c2C1=O (stereo unspecified) |  |  | inactive
C/C(=N\O)c1ccc(OCc2cc(C(F)(F)F)cc(C(F)(F)F)c2)cc1 | > 200 µM | 40.7 µM | 
COc1cc(C(=O)C/C(CCC(=O)Nc2ccccc2[N+](=O)[O-])=N\NC(=O)CC#N)ccc1O | > 537 µM | 224 µM | 
Cc1cc2c(c(=O)n1C)SCC2 | > 200 µM | > 200 µM | 
O=C(O)c1nn(-c2ccccn2)c(O)c1N=Nc1ccc(/C=C/c2ccc(N=Nc3c(C(=O)O)nn(-c4ccccn4)c3O)cc2S(=O)(=O)O)c(S(=O)(=O)O)c1 | > 20.4 µM | > 20.4 µM | 
CCOC(=O)C(CC(=O)OC)NC(=O)C(CC(=O)OC)NC(=O)C(CC(=O)OC)NC(=O)C(CC(=O)OC)NC(=O)OCc1ccccc1 (stereo unspecified) (Cbz-D(OMe)D(OMe)D(OMe)D(OMe)-OEt; configuration not given here) | > 200 µM | > 200 µM | 
CC1=C(O)c2cn(C)cc2C(=O)C1=O |  |  | inactive
